Reference: patent US20170014430A1, “Cycloartenol-Containing Composition” (KAO CORPORATION, priority 2014, published 2017)
Marks after values point to notes of the source that are not given here.

Legend:
[1] = target: T1, lipase from porcine pancreas (Sus scrofa, UniProt P00591); assay: Inhibitory action against lipase: amount of free fatty acid produced from bile acid micelles (artificial in vivo system); type: biochemical
T1 construct: lipase from porcine pancreas [SIGMA]; purchased SIGMA; host or cells: porcine pancreas (tissue-derived preparation)
T1 sequence (P00591 1-450): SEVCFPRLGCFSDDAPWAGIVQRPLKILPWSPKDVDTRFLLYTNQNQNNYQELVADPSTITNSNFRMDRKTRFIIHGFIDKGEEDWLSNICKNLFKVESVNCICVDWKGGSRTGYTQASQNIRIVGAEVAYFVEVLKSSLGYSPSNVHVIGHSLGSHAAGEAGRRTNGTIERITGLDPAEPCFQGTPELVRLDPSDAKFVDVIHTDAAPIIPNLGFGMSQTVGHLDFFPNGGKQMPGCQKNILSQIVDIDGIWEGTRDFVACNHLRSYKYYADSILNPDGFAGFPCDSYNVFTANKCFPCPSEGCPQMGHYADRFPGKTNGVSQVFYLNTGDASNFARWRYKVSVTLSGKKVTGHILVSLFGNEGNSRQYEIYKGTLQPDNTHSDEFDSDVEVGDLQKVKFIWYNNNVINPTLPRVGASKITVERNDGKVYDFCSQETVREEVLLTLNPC
Protocol: In this example, an emulsification liquid containing bile acid micelles was produced as an artificial in vivo system. In the artificial in vivo system, the inhibitory action of the test samples against the lipolytic activity by lipase in vivo was evaluated by measuring the amount of free fatty acid collected from the bile acid micelles after application of lipase in the presence of the test samples.
10 g of olive oil (Wako Pure Chemical Industries, Ltd.) was added to each test sample (30 mg in terms of CA amount), which was heated at 70° C. in an oven for 20 minutes to be dissolved.
0.92 g of olive oil in which each test sample was dissolved, 40 mg of egg yolk lecithin (Wako Pure Chemical Industries, Ltd.), and 24 mL of the bile acid solution were added to a 50-mL tube, followed by cooling with ice, and thereafter emulsification was performed thereon using an ultrasonic homogenizer. […] Thereafter, 2.5 mL of a 0.1% lipase solution (0.1N TRIS-HCl buffer solution of lipase from porcine pancreas [SIGMA]) was added thereto, which was mixed with stirring using a vortex mixer for 10 seconds, followed by incubation in a water bath at 37° C. for 10 minutes. The tube was moved into an oil bath at 70° C., was subjected to enzyme inactivation for 15 minutes, and thereafter was mixed again with stirring using a vortex mixer to collect 100 μL.
The amount of free fatty acid in the reaction solution was determined using NEFA-C Test wako. That is, 800 μL of a coloring reagent A was added to 100 μL of the sample, which was stirred using a vortex mixer, and thereafter was heated at 37° C. for 10 minutes. After cooling, 1600 μL of a coloring reagent B was added thereto, followed by stirring, and was heated again at 37° C. for 10 minutes. This was subjected to an ultraviolet/visible spectrophotometer to measure an absorbance at 550 nm. Thus, the amount of free fatty acid produced was obtained. Each reaction solution was measured 3 times or 4 times by the same operation.

blood GIP = assay: Inhibitory action against blood GIP increase, intragastric administration test of starch paste sample; type: in vivo, C57BL/6J mice; conditions: Table 6, AUC for 120 minutes, relative value with control administration group taken as 100, 175 μM in terms of CA
Protocol: For experiments, C57BL/6J mice (male, 8 week-old, manufactured by CLEA Japan, Inc.) grouped so that each group has the same body weight (N=16/group) were used and were subjected to the tests.
Starch (waxy corn, Amioca) was dissolved in distilled water in an amount 4 times the amount of the starch and gelatinized (pregelatinized) by autoclaving (at 121° C. under a pressure of 2 atmospheres for 20 minutes). Each of the test samples (Sample Nos. 2 to 4 and 8) shown in Table 4 was emulsified in triolein containing egg yolk lecithin and albumin to obtain an emulsified oil. […]
The starch paste sample containing the test sample was intragastrically administered to a mouse fasted for 20 hours, and part of the blood was collected from the orbital venous plexus over time (before the administration, and at 10, 30, 60, and 120 minutes after the administration). […] The collected blood was subjected to centrifugation, and thereafter the blood plasma was prepared and measured using GIP ELISA kit (EMD Millipore Corporation). The blood GIP amount of each sample after the administration was calculated by measuring the maximum value (Cmax) and the area under the concentration curve (AUC) for 120 minutes. […]

[2] = in vivo; Patent Literatures 9 to 11; cited from earlier work

Compound: CC(C)=CCC[C@@H](C)[C@H]1CC[C@@]2(C)[C@@H]3CC[C@H]4C(C)(C)[C@@H](O)CC[C@@]45C[C@@]35CC[C@]12C [Purified product of cycloartenol, cycloartenol]
- amount of free fatty acid produced compared to the control / lipase inhibitory activity (in words) ([1]; Example 1): reduced
- Amount of free fatty acid produced, Average ([1]; Example 1, test sample 30 mg in terms of CA in 10 g olive oil, lipase 37° C. 10 minutes, NEFA-C Test wako, absorbance 550 nm, control (olive oil alone) 0.376): 0.276
- amount of free fatty acid produced compared with the control / lipase inhibitory activity (in words) ([1]; Example 2): reduced
- Amount of free fatty acid produced, Average ([1]; Example 2, same manner as Example 1, control (olive oil alone) 0.296): 0.238
- GIP (AUC) (blood GIP): 81 *
- inhibitory activity against GIP increase [2]: exerts inhibitory activities
- inhibitory activity against postprandial blood glucose increase [2]: exerts inhibitory activities
